# Measurements from patent publication US12577231B2, “Androgen receptor PROTACS” (GlaxoSmithKline Intellectual Property Development Limited, priority 2023, dated 2026).
# Molecular target: T1, Androgen Receptor dual T878A/L702H mutant protein (Homo sapiens, UniProt P10275, L702H/T878A)
# T1 construct: host or cells: MDA-PCa-2b
# T1 sequence (P10275 1-920 L702H/T878A): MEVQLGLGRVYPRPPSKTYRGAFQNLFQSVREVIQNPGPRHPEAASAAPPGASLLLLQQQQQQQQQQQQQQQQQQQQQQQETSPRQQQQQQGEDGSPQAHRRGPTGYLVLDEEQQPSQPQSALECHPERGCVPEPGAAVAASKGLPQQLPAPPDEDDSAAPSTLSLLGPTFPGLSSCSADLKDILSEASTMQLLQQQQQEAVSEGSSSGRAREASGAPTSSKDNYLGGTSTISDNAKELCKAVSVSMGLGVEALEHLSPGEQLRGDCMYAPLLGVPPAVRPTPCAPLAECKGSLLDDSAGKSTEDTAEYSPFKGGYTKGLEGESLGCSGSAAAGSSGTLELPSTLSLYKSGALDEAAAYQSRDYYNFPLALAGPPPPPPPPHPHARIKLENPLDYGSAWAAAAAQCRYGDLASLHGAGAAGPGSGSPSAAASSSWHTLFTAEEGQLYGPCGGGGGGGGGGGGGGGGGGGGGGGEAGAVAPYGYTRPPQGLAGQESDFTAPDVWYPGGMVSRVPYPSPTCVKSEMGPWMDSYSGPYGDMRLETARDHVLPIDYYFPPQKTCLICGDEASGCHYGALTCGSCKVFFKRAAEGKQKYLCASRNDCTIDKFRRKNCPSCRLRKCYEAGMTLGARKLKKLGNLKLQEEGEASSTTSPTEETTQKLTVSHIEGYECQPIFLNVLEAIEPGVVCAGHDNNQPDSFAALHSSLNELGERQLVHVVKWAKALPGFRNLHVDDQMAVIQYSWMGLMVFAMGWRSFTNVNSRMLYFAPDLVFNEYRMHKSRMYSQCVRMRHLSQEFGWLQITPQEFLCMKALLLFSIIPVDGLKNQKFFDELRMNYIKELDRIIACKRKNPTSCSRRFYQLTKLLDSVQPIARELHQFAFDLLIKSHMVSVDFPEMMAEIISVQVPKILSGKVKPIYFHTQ
# Assay: Dual Mutant (T878A/L702H) Androgen Receptor Degradation Assay (HTRF, MDA-PCa-2b cells)
# Type: cell-based
# Conditions: 18 h, 18 h incubation, read-out: mean asymptote max
# Protocol: Degradation of Androgen Receptor dual T878A/L702H mutant protein in human MDA-PCa-2b (ATCC) cells treated with PROTACs was quantified using the HTRF Human Androgen Receptor Detection Kit (PerkinElmer) in 384 well assay plate format. 10 mM DMSO (Sigma-Aldrich) stock solutions of PROTACs were prepared and diluted across an 11 concentration, 3-fold increment range, and 25 nL dispensed into a white opaque bottomed 384 well assay plate (Thermofisher) using an acoustic ECHO dispenser (Labcyte). Cells were cultured in growth medium (BRFF—HPC-1 (Athena ES) supplemented with 20% FBS (Gibco), penicillin 50U/mL and streptomycin 50 μg/mL (Gibco, #15140-122)) in collagen I or poly-D-lysine coated T175 flasks (Corning, #356487 or #356539, respectively). For the assay, cells were harvested from the flask, centrifuged at 200 g for 5 min and then resuspended in the growth medium. 25 μl of cell suspension containing 10,000 cells was dispensed into each well of the assay plate containing the test compounds, which was then incubated for 18 h at 37° C./5% CO2. Control wells were included on each assay plate, with assay medium without cells being the no AR remaining 100% effect control, and cells treated with DMSO vehicle only, without PROTAC, the 0% effect control. After 18 h incubation 8 μl of supplemented lysis buffer from HTRF kit was added to each well and the plate shaken at 500 rpm for 1 h at room temperature. 8 μl of antibody mix in Detection buffer from HTRF kit was added to each well and the plate was incubated for 2 h in dark at mom temperature. The fluorescence was measured at both 620 nm and 665 nm using an excitation wavelength of 337 nm with a PHERAstar microplate reader (BMG Labtech) and the % AR protein remaining in each well was calculated by normalising the HTRF ratio (665 nm signal/620 nm signal) value to the control wells mentioned above. Parameters corresponding to the potency and efficacy estimates of the PROTACs were obtained from these normalised values using curve fitting software (IDBS ActivityBase). These included the DC50 and the Dmax estimates. Two versions of the DC50, called relative DC50 and absolute DC50, were typically generated. These are the inflection point of a fitted 4 parameter sigmoidal response curve and the interpolated concentration of PROTAC corresponding to 50% of the protein being degraded, respectively. The Dmax parameter was the maximum experimentally observed degradation and the asymptote max parameter the fitted response curve asymptote maximum.
row,SMILES,Dmax [%]
1,"CC1(C)[C@H](NC(=O)c2ccc(N3CCC(CN4CCC(n5ncc6c(N7CCC(=O)NC7=O)cccc65)CC4)CC3)c(F)c2)C(C)(C)[C@H]1Oc1ccc(C#N)c2c1CCO2 [Example 9, N-((1r,3r)-3-((7-Cyano-2,3-dihydrobenzofuran-4-yl)oxy)-2,2,4,4-tetramethylcyclobutyl)-4-(4-((4-(4-(2,4-dioxotetrahydropyrimidin-1(2H)-yl)-1H-indazol-1-yl)piperidin-1-yl)methyl)piperidin-1-yl)-3-fluorobenzamide]",≥ 50
2,"CC1(C)[C@H](NC(=O)c2ccc(N3CCC(CN4CCC(n5ncc6c(N7CCC(=O)NC7=O)cc(F)cc65)CC4)CC3)c(F)c2)C(C)(C)[C@H]1Oc1ccc(C#N)c(Cl)c1 [Example 11, N-((1r,3r)-3-(3-Chloro-4-cyanophenoxy)-2,2,4,4-tetramethylcyclobutyl)-4-(4-((4-(4-(2,4-dioxotetrahydropyrimidin-1(2H)-yl)-6-fluoro-1H-indazol-1-yl)piperidin-1-yl)methyl)piperidin-1-yl)-3-fluorobenzamide]",≥ 50
3,"CC1(C)[C@H](NC(=O)c2ccc(N3CCC(CN4CCC(n5ncc6c(N7CCC(=O)NC7=O)cccc65)CC4)CC3)cc2)C(C)(C)[C@H]1Oc1ccc(C#N)c2ncccc12 [Example 29, N-((1r,3r)-3-((8-Cyanoquinolin-5-yl)oxy)-2,2,4,4-tetramethylcyclobutyl)-4-(4-((4-(4-(2,4-dioxotetrahydropyrimidin-1(2H)-yl)-1H-indazol-1-yl)piperidin-1-yl)methyl)piperidin-1-yl)benzamide]",≥ 50
4,"CC1(C)[C@H](NC(=O)c2ccc(N3CCC(CN4CCC(n5ncc6c(N7CCC(=O)NC7=O)cccc65)CC4)CC3)c(F)c2)C(C)(C)[C@H]1Oc1ccc(C#N)c(Cl)c1 [Example 1, N-((1r,3r)-3-(3-Chloro-4-cyanophenoxy)-2,2,4,4-tetramethylcyclobutyl)-4-(4-((4-(4-(2,4-dioxotetrahydropyrimidin-1(2H)-yl)-1H-indazol-1-yl)piperidin-1-yl)methyl)piperidin-1-yl)-3-fluorobenzamide]",≥ 50
5,"COc1cc(O[C@H]2C(C)(C)[C@H](NC(=O)c3ccc(N4CCC(CN5CCC(n6ncc7c(N8CCC(=O)NC8=O)cc(F)cc76)CC5)CC4)c(F)c3)C2(C)C)ccc1C#N [Example 24, N-((1r,3r)-3-(4-Cyano-3-methoxyphenoxy)-2,2,4,4-tetramethylcyclobutyl)-4-(4-((4-(4-(2,4-dioxotetrahydropyrimidin-1(2H)-yl)-6-fluoro-1H-indazol-1-yl)piperidin-1-yl)methyl)piperidin-1-yl)-3-fluorobenzamide]",≥ 50
6,"CC1(C)[C@H](NC(=O)c2ccc(N3CCC(CN4CC[C@H](n5ncc6c(N7CCC(=O)NC7=O)cccc65)C4)CC3)c(F)c2)C(C)(C)[C@H]1Oc1ccc(C#N)c(Cl)c1 [Example 10, N-((1r,3r)-3-(3-Chloro-4-cyanophenoxy)-2,2,4,4-tetramethylcyclobutyl)-4-(4-(((S)-3-(4-(2,4-dioxotetrahydropyrimidin-1(2H)-yl)-1H-indazol-1-yl)pyrrolidin-1-yl)methyl)piperidin-1-yl)-3-fluorobenzamide]",≥ 50
7,"COc1cc(O[C@H]2C(C)(C)[C@H](NC(=O)c3ccc(N4CCC(CN5CCC(n6ccc7c(N8CCC(=O)NC8=O)cccc76)CC5)CC4)c(F)c3)C2(C)C)ccc1C#N [Example 22, N-((1r,3r)-3-(4-Cyano-3-methoxyphenoxy)-2,2,4,4-tetramethylcyclobutyl)-4-(4-((4-(4-(2,4-dioxotetrahydropyrimidin-1(2H)-yl)-1H-indol-1-yl)piperidin-1-yl)methyl)piperidin-1-yl)-3-fluorobenzamide]",≥ 50
8,"Cc1ccc2c(O[C@H]3C(C)(C)[C@H](NC(=O)c4ccc(N5CCC(CN6CCC(n7ncc8c(N9CCC(=O)NC9=O)cccc87)CC6)CC5)c(F)c4)C3(C)C)ccc(C#N)c2n1 [Example 7, N-((1r,3r)-3-((8-cyano-2-methylquinolin-5-yl)oxy)-2,2,4,4-tetramethylcyclobutyl)-4-(4-((4-(4-(2,4-dioxotetrahydropyrimidin-1(2H)-yl)-1H-indazol-1-yl)piperidin-1-yl)methyl)piperidin-1-yl)-3-fluorobenzamide]",≥ 50
9,"Cc1c(O[C@H]2C(C)(C)[C@H](NC(=O)c3ccc(N4CCC(CN5CCC(n6ncc7c(N8CCC(=O)NC8=O)cccc76)CC5)CC4)c(F)c3)C2(C)C)ccc(C#N)c1Cl [Example 2, N-((1r,3r)-3-(3-Chloro-4-cyano-2-methylphenoxy)-2,2,4,4-tetramethylcyclobutyl)-4-(4-((4-(4-(2,4-dioxotetrahydropyrimidin-1(2H)-yl)-1H-indazol-1-yl)piperidin-1-yl)methyl)piperidin-1-yl)-3-fluorobenzamide]",≥ 50
10,"COc1cc(O[C@H]2C(C)(C)[C@H](NC(=O)c3ccc(N4CCC(CN5CC[C@H](n6ncc7c(N8CCC(=O)NC8=O)cccc76)[C@H](F)C5)CC4)c(F)c3)C2(C)C)ccc1C#N [Example 26, N-((1r,3r)-3-(4-Cyano-3-methoxyphenoxy)-2,2,4,4-tetramethylcyclobutyl)-4-(4-(((3R,4S)-4-(4-(2,4-dioxotetrahydropyrimidin-1(2H)-yl)-1H-indazol-1-yl)-3-fluoropiperidin-1-yl)methyl)piperidin-1-yl)-3-fluorobenzamide]",≥ 50
11,"CC1(C)[C@H](NC(=O)c2ccc(N3CCC(CN4CC[C@H](n5ncc6c(N7CCC(=O)NC7=O)cccc65)[C@H](F)C4)CC3)c(F)c2)C(C)(C)[C@H]1Oc1ccc(C#N)c(Cl)c1 [Example 14, N-((1r,3r)-3-(3-Chloro-4-cyanophenoxy)-2,2,4,4-tetramethylcyclobutyl)-4-(4-(((3R,4S)-4-(4-(2,4-dioxotetrahydropyrimidin-1(2H)-yl)-1H-indazol-1-yl)-3-fluoropiperidin-1-yl)methyl)piperidin-1-yl)-3-fluorobenzamide]",≥ 50
12,"COc1cc(O[C@H]2C(C)(C)[C@H](NC(=O)c3ccc(N4CCC(CN5CCC(n6ccc7c(N8CCC(=O)NC8=O)c(F)ccc76)CC5)CC4)c(F)c3)C2(C)C)ccc1C#N [Example 23, N-((1r,3r)-3-(4-Cyano-3-methoxyphenoxy)-2,2,4,4-tetramethylcyclobutyl)-4-(4-((4-(4-(2,4-dioxotetrahydropyrimidin-1(2H)-yl)-5-fluoro-1H-indol-1-yl)piperidin-1-yl)methyl)piperidin-1-yl)-3-fluorobenzamide]",≥ 50
13,"CC1(C)[C@H](NC(=O)c2ccc(N3CCC(CN4CCC(n5ccc6c(N7CCC(=O)NC7=O)c(F)ccc65)CC4)CC3)c(F)c2)C(C)(C)[C@H]1Oc1ccc(C#N)c(Cl)c1 [Example 12, N-((1r,3r)-3-(3-Chloro-4-cyanophenoxy)-2,2,4,4-tetramethylcyclobutyl)-4-(4-((4-(4-(2,4-dioxotetrahydropyrimidin-1(2H)-yl)-5-fluoro-1H-indol-1-yl)piperidin-1-yl)methyl)piperidin-1-yl)-3-fluorobenzamide]",≥ 50
